{
  "source": "patent US11191717B2",
  "about": "“Topical therapy for the treatment of skin malignancies using nanoparticles of taxanes” (DFB SORIA, LLC, priority 2017, dated 2021)",
  "key": {"[1]": {"test": "Observations of paclitaxel nanoparticle crystals in various substances and solutions of substances (light microscopy)", "assay_type": "physicochemical"}, "[2]": {"conditions": "methanol/water 15/85 (v/v), 37° C., pH 7, 75 rpm, cited from earlier work"}, "[3]": {"tested_on": "intact human cadaver skin", "test": "In vitro skin penetration diffusion study (Franz diffusion cell)", "assay_type": "in vitro ADME", "conditions": "results in Table 14 (formulas F1 through F13)", "experimental": "The skin was centered and the edges flattened out. […] Additional receptor fluid was added where necessary.\nCells were left uncapped during the experiment."}, "[4]": {"test": "Particle size analysis of paclitaxel nanoparticles lots (ACCUSIZER 780)", "assay_type": "physicochemical", "conditions": "nanoparticle API in 0.1% w/w SDS solution", "experimental": "Instrument parameters: Max. Concentration: 9000 particles/mL, No. containers: 1, Sensor Range: Summation, Lower Detection Limit: 0.5 μm, Flow Rate: 30 mL/min, No. Analysis pulls: 4, Time between pulls: 1 sec, Pull volume: 10 mL, Tare Volume: 1 mL, Prime volume: 1 mL, Include First Pull: Not Selected.\nVortexed for 5-10 minutes and sonicated in a water batch for 1 minute.\nMethod: Filled a plastic bottle with filtered (0.22 μm) 0.1% w/w SDS solution and analyzed the Background."}},
  "note": "Where two headings read alike, the source gives them in different places.",
  "data": [
    {"smiles": "CC(=O)O[C@H]1C(=O)[C@@]2(C)[C@H]([C@H](OC(=O)c3ccccc3)[C@]3(O)C[C@H](OC(=O)[C@H](O)[C@@H](NC(=O)c4ccccc4)c4ccccc4)C(C)=C1C3(C)C)[C@]1(OC(C)=O)CO[C@@H]1C[C@@H]2O", "note": "[Paclitaxel nanoparticles, paclitaxel]", "values": [
      {"measurement": "Visual observation by light microscopy- Needle shaped crystals observed?", "setting": "[1]; in Aluminum sulfate 0.1-0.2% in water, @ 7 days, RT", "value": "Yes, >5 μm, @"},
      {"measurement": "Visual observation by light microscopy- Needle shaped crystals observed?", "setting": "[1]; in Ammonium lauryl sulfate 2% in water, @ 3 days, RT", "value": "Yes, >5 μm @"},
      {"measurement": "Visual observation by light microscopy- Needle shaped crystals observed?", "setting": "[1]; in Benzalkonium chloride (50%) 2% in water, @ 7 days & 21 days, RT", "value": "No, <5 μm @"},
      {"measurement": "Visual observation by light microscopy- Needle shaped crystals observed?", "setting": "[1]; in CARBOPOL ULTREZ 10 (with Ammonium hydroxide as neutralizer) 0.5% in water, @ 8 days & 21 days, RT", "value": "No, <5 μm, @ 8"},
      {"measurement": "Visual observation by light microscopy- Needle shaped crystals observed?", "setting": "[1]; in Castor Oil 100%, @ 24 hrs & 9 days, RT", "value": "No, <5 μm @ 24"},
      {"measurement": "Visual observation by light microscopy- Needle shaped crystals observed?", "setting": "[1]; in Dimethicone, 1000 cSt 100%, @ 24 hrs & 6 days, RT", "value": "No, <5 μm @ 24"},
      {"measurement": "Visual observation by light microscopy- Needle shaped crystals observed?", "setting": "[1]; in FOMBLIN HC04 100%, @ 4, 7 & 13 days, RT", "value": "No, <5 μm @ 4,"},
      {"measurement": "Visual observation by light microscopy- Needle shaped crystals observed?", "setting": "[1]; in Hydroxyethyl cellulose 1% in water, @ 7 days, RT", "value": "Yes, >5 μm, @"},
      {"measurement": "Visual observation by light microscopy- Needle shaped crystals observed?", "setting": "[1]; in Hydroxypropyl methylcellulose 1% in water, @ 3 days, RT", "value": "Yes, >5 μm @"},
      {"measurement": "Visual observation by light microscopy- Needle shaped crystals observed?", "setting": "[1]; in Lecithin 1% in water, @ 24 hrs, RT", "value": "Yes, >10 μm, @"},
      {"measurement": "Visual observation by light microscopy- Needle shaped crystals observed?", "setting": "[1]; in Light Mineral Oil NF 100%, @ 3 days, RT & 40 C.", "value": "No, <5 μm @ 3"},
      {"measurement": "Visual observation by light microscopy- Needle shaped crystals observed?", "setting": "[1]; in Magnesium nitrate 5% in water, @ 3 days, RT", "value": "Yes, >5 μm @"},
      {"measurement": "Visual observation by light microscopy- Needle shaped crystals observed?", "setting": "[1]; in Mannitol 5% in water, @ 7 days, RT", "value": "Yes, >5 μm, @"},
      {"measurement": "Visual observation by light microscopy- Needle shaped crystals observed?", "setting": "[1]; in Mineral Oil USP (heavy) 100%, @ 3 days, RT & 40 C.", "value": "No, <5 μm @ 3"},
      {"measurement": "Visual observation by light microscopy- Needle shaped crystals observed?", "setting": "[1]; in PEG 400 10% in water, @ 22 days, RT & 60 C.", "value": "Yes, >5 μm @ 22"},
      {"measurement": "Visual observation by light microscopy- Needle shaped crystals observed?", "setting": "[1]; in Poloxamer 188 2% in water, @ 7 days, RT", "value": "Yes, >5 μm @ 7"},
      {"measurement": "Visual observation by light microscopy- Needle shaped crystals observed?", "setting": "[1]; in Poloxamer 407 2% in water, @ 5 & 7 days, RT", "value": "No, <5 μm @"},
      {"measurement": "Visual observation by light microscopy- Needle shaped crystals observed?", "setting": "[1]; in Polyoxyl 40 Hydrogenated Castor Oil (KOLLIPHOR RH40) 1% in water, @ 6 days, RT", "value": "Yes, <5 μm @ 6"},
      {"measurement": "Visual observation by light microscopy- Needle shaped crystals observed?", "setting": "[1]; in Polysorbate 80 0.5% in Saline, @ 7 days, RT & 60 C.", "value": "Yes, >5 μm @"},
      {"measurement": "Visual observation by light microscopy- Needle shaped crystals observed?", "setting": "[1]; in Polysorbate 80 0.5% in water, @ 22 days, RT & 60 C.", "value": "Yes, <5 μm @ 22"},
      {"measurement": "Visual observation by light microscopy- Needle shaped crystals observed?", "setting": "[1]; in Povidone 1% in water, @ 7 days & 21 days, RT", "value": "Yes, <5 μm @ 7"},
      {"measurement": "Visual observation by light microscopy- Needle shaped crystals observed?", "setting": "[1]; in Proline 3% in water, @ 7 days, RT", "value": "Yes, >5 μm, @"},
      {"measurement": "Visual observation by light microscopy- Needle shaped crystals observed?", "setting": "[1]; in Purified Water 100%, @ 5 days, RT & 60 C.", "value": "Yes, >5 μm, @ 5"},
      {"measurement": "Visual observation by light microscopy- Needle shaped crystals observed?", "setting": "[1]; in ST-Cyclomethicone 5 NF 100%, @ 24 hrs & 13 days, RT", "value": "No, <5 μm @ 24"},
      {"measurement": "Visual observation by light microscopy- Needle shaped crystals observed?", "setting": "[1]; in Saline 0.9% NaCl in water, @ 7 days, RT & 60 C.", "value": "Yes, >10 μm, @"},
      {"measurement": "Visual observation by light microscopy- Needle shaped crystals observed?", "setting": "[1]; in Sodium lauryl sulfate 2% in water, @ 7 days, RT", "value": "Yes, >5 μm, @"},
      {"measurement": "Visual observation by light microscopy- Needle shaped crystals observed?", "setting": "[1]; in Sodium phosphate monobasic 0.75% in water, @ 7 days, RT", "value": "Yes, >5 μm, @"},
      {"measurement": "Visual observation by light microscopy- Needle shaped crystals observed?", "setting": "[1]; in Sorbitol 5% in water, @ 7 days, RT", "value": "Yes, >5 μm, @"},
      {"measurement": "Visual observation by light microscopy- Needle shaped crystals observed?", "setting": "[1]; in Vitamin E TPGS 0.5% in water, @ 6 days, RT", "value": "Yes, <5 μm @ 6"},
      {"measurement": "Visual observation by light microscopy- Needle shaped crystals observed?", "setting": "[1]; in Zinc acetate […] in water, @ 7 days, RT", "value": "Yes, >5 μm, @"}
    ]},
    {"smiles": "CC(=O)O[C@@]12CO[C@@H]1C[C@H](O)[C@@]1(C)C(=O)[C@H](O)C3=C(C)[C@@H](OC(=O)[C@H](O)[C@@H](NC(=O)OC(C)(C)C)c4ccccc4)C[C@@](O)([C@@H](OC(=O)c4ccccc4)[C@H]21)C3(C)C", "note": "[docetaxel nanoparticles, docetaxel]", "values": [
      {"measurement": "dissolution rate, dissolved in 30 minutes", "setting": "[2]; made by milling", "value": 9, "unit": "%"},
      {"measurement": "dissolution rate, dissolved in 30 minutes", "setting": "[2]; made by the supercritical carbon dioxide method", "value": 27, "unit": "%"}
    ]},
    {"smiles": "CC(=O)O[C@H]1C(=O)[C@@]2(C)[C@H]([C@H](OC(=O)c3ccccc3)[C@]3(O)C[C@H](OC(=O)[C@H](O)[C@@H](NC(=O)c4ccccc4)c4ccccc4)C(C)=C1C3(C)C)[C@]1(OC(C)=O)CO[C@@H]1C[C@@H]2O", "note": "[Paclitaxel, paclitaxel]", "values": [
      {"measurement": "transdermal flux of the paclitaxel through the skin (epidermis and dermis)", "setting": "[3]", "value": "less than 0.01 μg/cm^2"}
    ]},
    {"smiles": "CC(=O)O[C@H]1C(=O)[C@@]2(C)[C@H]([C@H](OC(=O)c3ccccc3)[C@]3(O)C[C@H](OC(=O)[C@H](O)[C@@H](NC(=O)c4ccccc4)c4ccccc4)C(C)=C1C3(C)C)[C@]1(OC(C)=O)CO[C@@H]1C[C@@H]2O", "note": "[Paclitaxel nanoparticles lot used in formulas listed in Tabl] [listing 1 of 2 here]", "values": [
      {"measurement": "Particle size, Mean (number-weighted differential distribution)", "setting": "[4]", "value": 0.83, "unit": "μm"}
    ]},
    {"smiles": "CC(=O)O[C@H]1C(=O)[C@@]2(C)[C@H]([C@H](OC(=O)c3ccccc3)[C@]3(O)C[C@H](OC(=O)[C@H](O)[C@@H](NC(=O)c4ccccc4)c4ccccc4)C(C)=C1C3(C)C)[C@]1(OC(C)=O)CO[C@@H]1C[C@@H]2O", "note": "[Paclitaxel nanoparticles lot used in formulas listed in Tabl] [listing 2 of 2 here]", "values": [
      {"measurement": "Particle size, Mean (number-weighted differential distribution)", "setting": "[4]", "value": 0.861, "unit": "μm"},
      {"measurement": "Particle size, Median (number-weighted differential distribution)", "setting": "[4]", "value": 0.710, "unit": "μm"},
      {"measurement": "Particle size, Mode (number-weighted differential distribution)", "setting": "[4]", "value": 0.572, "unit": "μm"}
    ]}
  ]
}
